The target of assay [1] is T1, human Cav3.2 channels (Homo sapiens, UniProt O95180).
T1 construct: expressed in transfected cells; host or cells: HEK293 cells (ATCC No. CRL-1573), plasmid pcDNA3.1(+)
In words: Intracellular calcium concentration measurement (Fluo-4 AM) in stable cells expressing human Cav3.2 channels, buffer A / buffer B. It is filed as cell-based. The method in brief: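 State-dependent Cav3.2 inhibition compared in two buffers differing in potassium equilibrium potential (−92 vs −110 mV). Stable HEK293 line, Fluo-4 dye; compound 15 min, room temperature, dark, then KCl addition (83.8 or 91.8 mM) triggers calcium influx read 10 s; IC50 from peak increment over baseline.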
A general note: Calcium flux is commonly read through the fluorescence of an indicator in the cells.

For assay [2], the target named is T1, human Cav3.2 channels. The assay is described as follows: Electrophysiological evaluation, whole-cell patch-clamp with automatic patch-clamp system. Particulars: for inhibition at 0.3 µM: holding potential −80 mV, read-out: Cav3.2 channel current inhibition ratio at 0.3 μM of test compound (holding potential −80 mV). It is filed as cell-based. As for the experimental part:
Electrophysiological Evaluation
Stable cell line expressing human Cav3.2 channels, which had been produced by Test method (1) of Example 140, was seeded in a 10-cm dish using DMEM medium containing 10% FBS, and the cells were cultured for 24 hours or longer under the conditions of 37° C. and 5% CO2. The cells were detached using Accutase and were used after being suspended in ice-cold extracellular solution. The Cav3.2 channel current was measured by the Whole-cell patch-clamp method using an automatic patch-clamp system (Port-a-Patch; Nanion Technologies GmbH, EPC-10; HEKA Elektronik GmbH, Patchmaster; HEKA Elektronik GmbH) and buffers described below. Measurement of the Cav3.2 channel current was carried out at room temperature, and the measurement conditions were set as follows: holding potential: −80 mV, depolarization potential: −20 mV, depolarization time: 100 msec, and depolarization frequency: 10 sec. The Cav3.2 channel current was defined as the peak value of the inward current observed when depolarization occurred at −20 mV.
For a test compound, a DMSO solution was diluted 1,000 times with extracellular solution, and thus a solution having an intended concentration was produced. The test compound was applied using an extracellular perfusion system (Nanion Technologies GmbH) until the Cav3.2 channel current was stabilized, and five concentrations at the maximum from the low-concentration side were cumulatively applied. The inhibition ratio of the test compound was calculated from the current value immediately before the application of the test compound and the change rate of the Cav3.2 channel current after the application of the test compound (conditions for a holding potential of −80 mV: test compound concentration of 0.3 μM, conditions for a holding potential of −100 mV: test compound concentration of 3 μM).
Extracellular solution: 135 mM NaCl, 4 mM KCl, 1 mM MgCl2, 5 mM CaCl2, 5 mM D-Glucose, and 10 mM HEPES, pH 7.4
Internal solution for electrode: 10 mM NaCl, 10 mM HEPES, 50 mM CsCl, 60 mM CsF, and 20 mM EGTA, pH 7.2
(In general: In patch-clamp work, channel activity is measured electrically.)

Setting [3] is: Tables 2 to 6, buffer A, equilibrium potential of potassium −92 mV, read-out: Inhibitory action of buffer A (inactivated state).
Setting [4] is: Table 1, buffer A, equilibrium potential of potassium −92 mV, read-out: Inhibitory action of buffer A (inactivated state).
Setting [5] is: Table 1, buffer B, equilibrium potential of potassium −110 mV, read-out: Inhibitory action of buffer B (resting state or closed state).

These results are taken from patent publication US11420944B2, “Voltage-dependent t-type calcium channel blocker” (Nippon Chemiphar Co., Ltd., priority 2016, dated 2022).

SMILES strings stand for the structures. Counter-ions that a name gives are not always drawn. Like-named read-outs stand apart in the source and are kept apart here.

T1 sequence (O95180 whole entry): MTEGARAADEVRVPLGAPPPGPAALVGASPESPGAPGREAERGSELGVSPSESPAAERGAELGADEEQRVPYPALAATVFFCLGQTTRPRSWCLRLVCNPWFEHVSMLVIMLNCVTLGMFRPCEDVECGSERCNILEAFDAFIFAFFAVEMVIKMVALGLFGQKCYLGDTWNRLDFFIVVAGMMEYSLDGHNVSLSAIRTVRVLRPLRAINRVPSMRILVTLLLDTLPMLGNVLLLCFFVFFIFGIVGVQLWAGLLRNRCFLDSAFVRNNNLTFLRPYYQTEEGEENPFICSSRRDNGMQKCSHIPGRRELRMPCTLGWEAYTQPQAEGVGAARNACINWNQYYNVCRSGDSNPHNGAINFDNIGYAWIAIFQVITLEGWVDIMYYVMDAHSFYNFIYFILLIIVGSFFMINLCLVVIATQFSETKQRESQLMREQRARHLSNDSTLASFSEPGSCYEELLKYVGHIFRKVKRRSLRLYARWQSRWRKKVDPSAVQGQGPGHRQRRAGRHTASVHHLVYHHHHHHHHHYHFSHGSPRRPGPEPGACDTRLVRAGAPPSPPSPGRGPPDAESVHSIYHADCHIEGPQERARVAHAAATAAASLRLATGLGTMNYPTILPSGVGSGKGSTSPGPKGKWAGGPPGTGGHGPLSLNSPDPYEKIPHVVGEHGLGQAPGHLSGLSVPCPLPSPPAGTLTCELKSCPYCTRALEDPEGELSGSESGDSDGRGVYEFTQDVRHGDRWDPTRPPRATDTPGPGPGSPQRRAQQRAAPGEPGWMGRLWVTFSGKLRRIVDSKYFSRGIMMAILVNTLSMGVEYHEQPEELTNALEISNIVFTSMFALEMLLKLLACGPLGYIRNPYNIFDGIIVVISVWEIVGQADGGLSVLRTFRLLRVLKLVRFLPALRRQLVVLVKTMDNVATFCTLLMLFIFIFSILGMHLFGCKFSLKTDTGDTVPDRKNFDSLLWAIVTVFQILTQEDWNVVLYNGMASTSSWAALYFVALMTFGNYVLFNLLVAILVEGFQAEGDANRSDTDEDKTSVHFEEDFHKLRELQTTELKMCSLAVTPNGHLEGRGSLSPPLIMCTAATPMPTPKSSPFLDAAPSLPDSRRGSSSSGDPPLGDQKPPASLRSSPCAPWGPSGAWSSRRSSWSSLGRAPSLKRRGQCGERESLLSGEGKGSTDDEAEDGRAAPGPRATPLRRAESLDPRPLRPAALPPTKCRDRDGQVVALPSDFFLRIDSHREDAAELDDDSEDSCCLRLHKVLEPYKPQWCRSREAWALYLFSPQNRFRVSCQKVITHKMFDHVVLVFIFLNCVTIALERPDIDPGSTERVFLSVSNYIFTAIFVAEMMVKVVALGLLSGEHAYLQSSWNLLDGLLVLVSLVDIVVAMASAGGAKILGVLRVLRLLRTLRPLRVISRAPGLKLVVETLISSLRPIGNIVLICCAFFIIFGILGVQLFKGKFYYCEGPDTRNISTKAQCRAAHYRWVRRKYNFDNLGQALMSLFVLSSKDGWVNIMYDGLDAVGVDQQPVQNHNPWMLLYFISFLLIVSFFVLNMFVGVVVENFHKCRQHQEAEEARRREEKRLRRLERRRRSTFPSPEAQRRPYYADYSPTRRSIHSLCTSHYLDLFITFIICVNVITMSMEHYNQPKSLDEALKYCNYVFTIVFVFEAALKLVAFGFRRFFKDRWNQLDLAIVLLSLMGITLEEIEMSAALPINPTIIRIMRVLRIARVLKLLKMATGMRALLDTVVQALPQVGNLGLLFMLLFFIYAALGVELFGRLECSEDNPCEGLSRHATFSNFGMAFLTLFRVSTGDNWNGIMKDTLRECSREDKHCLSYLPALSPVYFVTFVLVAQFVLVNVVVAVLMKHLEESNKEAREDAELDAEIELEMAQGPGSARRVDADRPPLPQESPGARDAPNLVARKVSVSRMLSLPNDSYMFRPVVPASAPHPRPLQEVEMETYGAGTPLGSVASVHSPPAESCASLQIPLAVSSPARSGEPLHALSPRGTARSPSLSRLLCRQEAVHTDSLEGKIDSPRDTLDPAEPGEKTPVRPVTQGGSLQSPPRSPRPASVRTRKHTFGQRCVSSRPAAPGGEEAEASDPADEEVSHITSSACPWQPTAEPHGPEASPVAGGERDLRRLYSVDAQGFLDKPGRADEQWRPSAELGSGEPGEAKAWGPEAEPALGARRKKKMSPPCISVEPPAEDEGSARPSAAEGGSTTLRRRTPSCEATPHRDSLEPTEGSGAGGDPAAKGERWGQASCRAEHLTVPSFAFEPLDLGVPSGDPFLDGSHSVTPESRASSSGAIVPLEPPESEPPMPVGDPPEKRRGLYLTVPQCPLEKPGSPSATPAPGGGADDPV

As for `Cc1c([C@@H](C)NC(=O)[C@H]2C[C@@H]2c2nc3ccccc3[nH]2)oc2ccc(F)cc12` [Example 101, (1S,2S)-2-(1H-benzo[d]imidazol-2-yl)-N—((R)-1-(5-fluoro-3-methylbenzofuran-2-yl)ethyl)cyclopropane-1-carboxamide], the IC50 in assay [1] (setting [3]) was not above 100 nM. Besides, the inhibition at 0.3 µM in assay [2] was found to be 73%.
Turning to `CCn1c([C@H]2C[C@@H]2C(=O)N[C@H](C)c2cc3cc(F)ccc3o2)nc2ccccc21` [Example 102, (1S,2S)-2-(1-ethyl-1H-benzo[d]imidazol-2-yl)-N—((R)-1-(5-fluorobenzofuran-2-yl)ethyl)cyclopropane-1-carboxamide], the IC50 in assay [1] (setting [3]) was not above 100 nM. Also, the inhibition at 0.3 µM in assay [2] turned out to be 74%.
As for `C[C@@H](NC(=O)[C@@H]1CCN(CC(=O)Nc2ccccc2)C1)c1ccc(OCC(F)(F)F)s1.Cl` [Example 17, hydrochloride], the IC50 in assay [1] (setting [4]) fell in the range of 100 to 1000 nM; in assay [1] (setting [5]), 1000 to 10000 nM. In assay [2], the inhibition at 0.3 µM stood at 64%.
Consider `C[C@@H](NC(=O)[C@H]1C[C@@H]1c1nc2ccccc2[nH]1)c1cc2cc(Cl)ccc2o1` [Example 82, (1S,2S)-2-(1H-benzo[d]imidazol-2-yl)-N—((R)-1-(5-chlorobenzofuran-2-yl)ethyl)cyclopropane-1-carboxamide], for which the IC50 in assay [1] (setting [3]) is not above 100 nM. Also, the inhibition at 0.3 µM in assay [2] amounted to 88%.
Regarding `C[C@@H](NC(=O)[C@H]1C[C@@H]1c1nc2ccccc2[nH]1)c1ccc2ccccc2n1` [Example 52, (1S,2S)-2-(1H-benzo[d]imidazol-2-yl)-N—((R)-1-(quinolin-2-yl)ethyl)cyclopropane-1-carboxamide], the IC50 in assay [1] (setting [3]) was 100 to 1000 nM. In addition, the inhibition at 0.3 µM in assay [2] worked out at 36%.
Consider `C[C@@H](NC(=O)C1CC1c1ccc2ccccc2n1)c1ccc(OCC(F)(F)F)s1` (single isomer, unassigned) [Example 34A], for which the IC50 in assay [1] (setting [3]) was in the range of 100 to 1000 nM. For the same molecule, the inhibition at 0.3 µM in assay [2] turned out to be 58%.
As for `CC(C)[C@@H](NC(=O)[C@H]1C[C@@H]1c1nc2ccccc2[nH]1)c1ccc(C(F)(F)F)s1` [Example 50, (1S,2S)-2-(1H-benzo[d]imidazol-2-yl)-N—((R)-2-methyl-1-(5-(trifluoromethyl)thiophen-2-yl)propyl)cyclopropane-1-carboxamide], in assay [1] (setting [3]), the IC50 was 100 to 1000 nM. Also, the inhibition at 0.3 µM in assay [2] turned out to be 43%.
For `Cc1nc(OCC(F)(F)F)sc1[C@@H](C)NC(=O)[C@H]1C[C@@H]1c1nc2ccccc2[nH]1` [Example 51, (1S,2S)-2-(1H-benzo[d]imidazol-2-yl)-N—((R)-1-(4-methyl-2-(2,2,2-trifluoroethoxy)thiazol-5-yl)ethyl)cyclopropane-1-carboxamide] the same measures were 100 to 1000 nM and 33%.
As to `C[C@@H](NC(=O)C1CC1c1nc2ccccc2[nH]1)c1cnc(OCC(F)(F)F)cn1` (stereo partly shown) [RQ-00311651, reference compound], in assay [2], the inhibition at 0.3 µM worked out at 17% and the “Cav3.2 channel current inhibition ratio at 3 μM of test compound (holding potential −100 mV)” value is reported as 14%.
Take `C[C@@H](NC(=O)[C@H]1C[C@@H]1c1nc2ccccc2[nH]1)c1cc2cc(F)cc(F)c2o1` [Example 88, (1S,2S)-2-(1H-benzo[d]imidazol-2-yl)-N—((R)-1-(5,7-difluorobenzofuran-2-yl)ethyl)cyclopropane-1-carboxamide]: in assay [1] (setting [3]), the IC50 was not above 100 nM. The inhibition at 0.3 µM in assay [2] turned out to be 37%.
Regarding `C[C@@H](NC(=O)[C@H]1C[C@@H]1c1nc2ccccc2[nH]1)c1cc2cc(F)ccc2s1` [Example 66, (1S,2S)-2-(1H-benzo[d]imidazol-2-yl)-N—((R)-1-(5-fluorobenzo[b]thiophen-2-yl)ethyl)cyclopropane-1-carboxamide], the IC50 in assay [1] (setting [3]) was not above 100 nM. The inhibition at 0.3 µM in assay [2] turned out to be 81%.
In the case of `C[C@@H](NC(=O)[C@H]1C[C@@H]1c1nc2ccccc2[nH]1)c1ccc(C(=O)OC(C)(C)C)s1` [Example 25A, Trans-5-((1R)-1-(2-(1H-benzo[d]imidazol-2-yl)cyclopropane-1-carboxamido)ethyl)thiophene-2-carboxylic acid tert-butyl ester], the IC50 in assay [1] (setting [3]) lay within 100 to 1000 nM. For the same molecule, in assay [2], the inhibition at 0.3 µM stood at 59% and the “Cav3.2 channel current inhibition ratio at 3 μM of test compound (holding potential −100 mV)” value stood at 54%.
Regarding `C[C@@H](NC(=O)[C@@H]1CCN(c2ccc(C(F)(F)F)cn2)C1)c1cc2cc(F)ccc2o1` [Example 121, (R)—N—((R)-1-(5-fluorobenzofuran-2-yl)ethyl)-1-(5-(trifluoromethyl)pyridin-2-yl)pyrrolidine-3-carboxamide], in assay [1] (setting [3]), the IC50 is more than 10000 nM.
As to `C[C@@H](NC(=O)C1CC1c1c[nH]c2ccccc12)c1cc2cc(F)ccc2o1` (single isomer, unassigned) [Example 98A], the IC50 in assay [1] (setting [3]) lay in the range of 100 to 1000 nM.
As to `C[C@@H](NC(=O)C1CC1c1cc(F)cc(F)c1)c1ccc(OCC(F)(F)F)s1` (single isomer, unassigned) [Example 19B], the IC50 in assay [1] (setting [3]) is more than 10000 nM.
`C[C@@H](NC(=O)[C@H]1C[C@@H]1c1nc2ccccc2[nH]1)c1cc2cc(C#N)ccc2o1` [Example 107, (1S,2S)-2-(1H-benzo[d]imidazol-2-yl)-N—((R)-1-(5-cyanobenzofuran-2-yl)ethyl)cyclopropane-1-carboxamide]: in assay [1] (setting [3]), the IC50 lay in the range of 100 to 1000 nM.
Consider `C[C@@H](NC(=O)C1CC1c1nc2c(Cl)cccc2[nH]1)c1ccc(OCC(F)(F)F)s1` (single isomer, unassigned) [Example 122A], for which, in assay [1] (setting [3]), the IC50 was not above 100 nM.
In the case of `C[C@@H](NC(=O)[C@H]1C[C@@H]1c1nc2cc(Cl)ccc2[nH]1)c1cc2cc(F)ccc2o1` [Example 81, (1S,2S)-2-(5-chloro-1H-benzo[d]imidazol-2-yl)-N—((R)-1-(5-fluorobenzofuran-2-yl)ethyl)cyclopropane-1-carboxamide], the IC50 in assay [1] (setting [3]) was not above 100 nM.
For the molecule `C[C@@H](NC(=O)[C@@H]1CCN(CCC(C)(C)C)C1)c1ccc(OCC(F)(F)F)s1` [Example 18, (R)-1-(3,3-dimethylbutyl)-N—((R)-1-(5-(2,2,2-trifluoroethoxy)thiophen-2-yl)ethyl)pyrrolidine-3-carboxamide hydrochloride], the IC50 in assay [1] (setting [4]) and in assay [1] (setting [5]) was 1000 to 10000 nM in each case.
In the case of `C[C@@H](NC(=O)C1CC1c1cn(C)c2ccccc12)c1cnc(OCC(F)(F)F)s1` (single isomer, unassigned) [Example 48], in assay [1] (setting [3]), the IC50 was not above 100 nM.
Turning to `CC(NC(=O)C1CC1c1nc2ccccc2[nH]1)c1cn(C(=O)OC(C)(C)C)c2ccccc12` (stereo not drawn) [Example 10, Trans-3-(1-(2-(1H-benzo[d]imidazol-2-yl)cyclopropanecarboxamido)ethyl)-1H-indole-1-carboxylic acid tert-butyl ester], the IC50 in assay [1] (setting [4]) and in assay [1] (setting [5]) was 100 to 1000 nM in each case.
Take `C[C@@H](NC(=O)C1CC1c1nc2ccccc2[nH]1)c1ccc(C(=O)N2CCOCC2)s1` (stereo in doubt) [Example 56, Trans-2-(1H-benzo[d]imidazol-2-yl)-N—((R)-1-(5-(morpholine-4-carbonyl)thiophen-2-yl)ethyl)cyclopropane-1-carboxamide]: the IC50 in assay [1] (setting [3]) fell in the range of 1000 to 10000 nM.
On to `C[C@H](NC(=O)C1CC1c1nc2ccccc2[nH]1)c1cnc(OCC(F)(F)F)s1` (single isomer, unassigned) [Example 7A], for which the IC50 was 1000 to 10000 nM in assay [1] (setting [4]) and more than 10000 nM in assay [1] (setting [5]).
`C[C@@H](NC(=O)[C@@H]1CCN(c2ccc(C(F)(F)F)cn2)C1)c1ccc(OCC(F)(F)F)s1` [Example 41, (R)—N—((R)-1-(5-(2,2,2-trifluoroethoxy)thiophen-2-yl)ethyl)-1-(5-(trifluoromethyl)pyridin-2-yl)pyrrolidine-3-carboxamide]: the IC50 in assay [1] (setting [3]) lay within 1000 to 10000 nM.
`CC(C(=O)NC12CC3CC(CC(C3)C1)C2)N1CC[C@@H](C(=O)N[C@H](C)c2cnc(OCC(F)(F)F)s2)C1` (stereo partly drawn) [Example 47, (3R)-1-(1-((adamantan-1-yl)amino)-1-oxopropan-2-yl)-N—((R)-1-(2-(2,2,2-trifluoroethoxy)thiazol-5-yl)ethyl)pyrrolidine-3-carboxamide]: the IC50 in assay [1] (setting [3]) was not above 100 nM.
Still for that read-out and setting: next, `C[C@@H](NC(=O)C1CC1c1nc2cccnc2[nH]1)c1ccc(OCC(F)(F)F)s1` (single isomer, unassigned) [Example 35]: 1000 to 10000 nM.
